Assay results: ChEMBL document CHEMBL1201862, “PubChem BioAssay data set” (2004)
Blank lines part the entries; values can stand above or below the compound they belong to. The source made the active and inactive calls.

Assays:
[1] = NIH3T3 cell viability loss – ATP luminescence, mouse fibroblasts, counter-screen, dose response (AID 2010); type: functional, cell-based;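 further: cells exposed to compound for about 90 hours before reading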
[2] = target: Heat shock protein HSP 90-alpha (Homo sapiens, UniProt P07900); type: functional, organism-based
[3] = Luminescence Cell-Based Dose Retest to Confirm Inhibitors of Cancer Stem Cells. [Related pubchem assays (depositor defined):AID2717, AID2721]; type: functional; settings: Homo sapiens
[4] = Trypanosoma cruzi growth suppression in host cells – NIH3T3 host cells, beta-gal luminescence, confirmation (AID 2044); type: functional, cell-based;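 further: intracellular parasites grown in NIH/3T3 mouse fibroblasts as host cells; luminescent beta-galactosidase reporter signal from transgenic T. cruzi replicating inside host cells; inhibitors lower the luminescence signal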
[5] = target: T1, Corticotropin-releasing factor receptor 2/Corticotropin-releasing factor-binding protein (Homo sapiens, UniProt P24387+Q13324); assay: Dose Response confirmation of uHTS hits for small molecule antagonists of the CRF-binding protein and CRF-R2 receptor complex.; type: functional; settings: read-out: IC50_Mean
T1 sequence (Q13324 whole entry): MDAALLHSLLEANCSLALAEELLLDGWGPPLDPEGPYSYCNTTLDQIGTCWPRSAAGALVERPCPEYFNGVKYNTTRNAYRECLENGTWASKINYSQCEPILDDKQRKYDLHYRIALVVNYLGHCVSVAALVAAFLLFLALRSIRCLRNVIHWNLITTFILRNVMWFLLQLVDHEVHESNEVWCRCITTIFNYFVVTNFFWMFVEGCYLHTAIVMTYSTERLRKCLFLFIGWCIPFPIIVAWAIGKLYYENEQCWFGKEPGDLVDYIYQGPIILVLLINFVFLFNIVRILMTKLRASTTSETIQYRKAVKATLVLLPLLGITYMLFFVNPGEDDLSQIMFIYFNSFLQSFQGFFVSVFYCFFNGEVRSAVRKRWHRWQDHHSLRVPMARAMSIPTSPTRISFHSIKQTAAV
T1 sequence (P24387 whole entry): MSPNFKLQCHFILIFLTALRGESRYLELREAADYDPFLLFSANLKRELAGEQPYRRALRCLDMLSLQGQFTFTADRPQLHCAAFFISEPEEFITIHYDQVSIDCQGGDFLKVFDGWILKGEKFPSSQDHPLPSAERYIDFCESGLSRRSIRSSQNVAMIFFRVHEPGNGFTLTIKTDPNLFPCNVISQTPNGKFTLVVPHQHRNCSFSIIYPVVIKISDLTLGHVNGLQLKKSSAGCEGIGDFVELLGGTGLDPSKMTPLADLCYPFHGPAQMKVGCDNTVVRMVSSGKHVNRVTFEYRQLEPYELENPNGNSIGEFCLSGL

[6] = target: T1, Corticotropin-releasing factor receptor 2/Corticotropin-releasing factor-binding protein; assay: activators of CRF receptor 2 with binding protein – uHTS hits, confirmation (AID 602473); type: functional; settings: read-out: EC50_Mean
[7] = blockers of CRF-binding protein–CRF-R2 complex – cell-based, uHTS hits, 384-well, dose response (AID 651639); type: functional, Homo sapiens; settings: read-out: IC50_Mean
Cytochrome P450 2C19 = Cytochrome P450 2C19 (Homo sapiens, UniProt P33261); assay: Cytochrome panel assay with activity outcomes. Panel member name: p450-cyp2c19 Compounds with AC50 equal or less than 10 uM are considered active; type: functional
Sequence of Cytochrome P450 2C19 (P33261 whole entry): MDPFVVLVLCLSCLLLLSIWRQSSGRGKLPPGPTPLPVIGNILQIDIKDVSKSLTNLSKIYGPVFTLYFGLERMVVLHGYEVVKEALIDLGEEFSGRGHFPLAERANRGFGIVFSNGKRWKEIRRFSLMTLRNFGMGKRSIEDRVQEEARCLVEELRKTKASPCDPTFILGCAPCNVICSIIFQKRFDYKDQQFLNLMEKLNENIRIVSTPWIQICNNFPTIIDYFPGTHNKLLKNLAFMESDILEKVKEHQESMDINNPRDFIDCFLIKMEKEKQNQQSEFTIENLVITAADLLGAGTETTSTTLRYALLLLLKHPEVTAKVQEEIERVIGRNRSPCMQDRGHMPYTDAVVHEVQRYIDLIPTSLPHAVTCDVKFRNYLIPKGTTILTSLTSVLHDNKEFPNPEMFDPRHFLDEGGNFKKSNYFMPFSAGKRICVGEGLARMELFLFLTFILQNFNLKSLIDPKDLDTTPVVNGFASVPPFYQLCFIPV

Cytochrome P450 2C9 = Cytochrome P450 2C9 (Homo sapiens, UniProt P11712)
Sequence of Cytochrome P450 2C9 (P11712 whole entry): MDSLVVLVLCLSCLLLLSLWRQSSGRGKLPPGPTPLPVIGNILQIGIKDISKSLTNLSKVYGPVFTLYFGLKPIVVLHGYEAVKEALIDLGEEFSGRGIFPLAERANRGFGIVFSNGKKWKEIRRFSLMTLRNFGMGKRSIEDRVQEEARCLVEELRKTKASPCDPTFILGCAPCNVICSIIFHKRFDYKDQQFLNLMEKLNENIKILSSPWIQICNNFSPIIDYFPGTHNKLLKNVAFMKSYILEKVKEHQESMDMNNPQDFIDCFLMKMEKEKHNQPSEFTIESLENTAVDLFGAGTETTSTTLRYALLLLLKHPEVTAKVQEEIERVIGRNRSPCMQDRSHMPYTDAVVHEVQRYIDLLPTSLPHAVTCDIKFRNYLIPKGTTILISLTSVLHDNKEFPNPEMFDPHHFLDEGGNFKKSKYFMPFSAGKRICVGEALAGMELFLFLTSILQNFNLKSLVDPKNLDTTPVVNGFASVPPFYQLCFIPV

Cytochrome P450 2D6 = Cytochrome P450 2D6 (Homo sapiens, UniProt P10635);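 further: CYP2D6 member of a cytochrome P450 panel assay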
Sequence of Cytochrome P450 2D6 (P10635 whole entry): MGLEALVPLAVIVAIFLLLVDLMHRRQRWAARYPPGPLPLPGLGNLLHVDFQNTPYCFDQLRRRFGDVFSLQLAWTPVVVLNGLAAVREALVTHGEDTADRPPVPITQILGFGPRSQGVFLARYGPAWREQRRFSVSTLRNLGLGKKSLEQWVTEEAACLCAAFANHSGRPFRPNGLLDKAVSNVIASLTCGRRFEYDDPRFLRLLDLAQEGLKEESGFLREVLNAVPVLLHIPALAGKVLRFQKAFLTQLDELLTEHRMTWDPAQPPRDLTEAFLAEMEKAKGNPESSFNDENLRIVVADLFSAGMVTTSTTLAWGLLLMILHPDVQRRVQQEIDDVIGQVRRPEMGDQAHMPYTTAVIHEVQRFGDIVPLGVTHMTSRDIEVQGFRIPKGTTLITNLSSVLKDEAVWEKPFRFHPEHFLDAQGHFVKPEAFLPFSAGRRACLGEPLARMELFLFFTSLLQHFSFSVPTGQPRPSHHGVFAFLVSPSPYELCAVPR

Paired box protein Pax-8 = Paired box protein Pax-8 (Homo sapiens, UniProt Q06710); assay: PAX8 transcriptional activity inhibition in RMG-I – RMG-I cells, luciferase, cherry-pick, dose response (AID 687027); type: functional, cell-based;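 further: luciferase reporter driven by Pax8 target thyroperoxidase promoter measured by SteadyGlo luminescence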
Sequence of Paired box protein Pax-8 (Q06710 whole entry): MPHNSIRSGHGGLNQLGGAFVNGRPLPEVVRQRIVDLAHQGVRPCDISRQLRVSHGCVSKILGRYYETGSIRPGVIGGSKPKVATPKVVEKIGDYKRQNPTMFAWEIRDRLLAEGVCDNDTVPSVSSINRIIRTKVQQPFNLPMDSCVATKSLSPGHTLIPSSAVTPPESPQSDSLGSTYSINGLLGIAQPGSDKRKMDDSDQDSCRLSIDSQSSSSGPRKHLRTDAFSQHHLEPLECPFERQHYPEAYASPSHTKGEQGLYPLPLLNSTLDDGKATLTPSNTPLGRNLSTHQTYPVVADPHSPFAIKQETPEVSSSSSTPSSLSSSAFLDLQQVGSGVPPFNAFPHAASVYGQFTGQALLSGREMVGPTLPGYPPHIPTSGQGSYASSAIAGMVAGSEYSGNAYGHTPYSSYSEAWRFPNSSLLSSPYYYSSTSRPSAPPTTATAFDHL

[8] = general cell-killing toxicity readout – plate reader, dry powder samples, cytotoxicity control for PAX8 inhibitor project, dose response (AID 743021); type: functional, cell-based
[9] = target: T2, Microphthalmia-associated transcription factor (Homo sapiens, UniProt O75030); assay: reducers of TRPM1 reporter luminescence, concentration series – cell-based, SK-MEL-5, cherry-picked, set 3, MITF inhibitor project, dose response (AID 493073); type: functional;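 further: SK-MEL-5 melanoma cells with luciferase driven by the MITF target TRPM1 promoter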
T2 sequence (O75030 whole entry): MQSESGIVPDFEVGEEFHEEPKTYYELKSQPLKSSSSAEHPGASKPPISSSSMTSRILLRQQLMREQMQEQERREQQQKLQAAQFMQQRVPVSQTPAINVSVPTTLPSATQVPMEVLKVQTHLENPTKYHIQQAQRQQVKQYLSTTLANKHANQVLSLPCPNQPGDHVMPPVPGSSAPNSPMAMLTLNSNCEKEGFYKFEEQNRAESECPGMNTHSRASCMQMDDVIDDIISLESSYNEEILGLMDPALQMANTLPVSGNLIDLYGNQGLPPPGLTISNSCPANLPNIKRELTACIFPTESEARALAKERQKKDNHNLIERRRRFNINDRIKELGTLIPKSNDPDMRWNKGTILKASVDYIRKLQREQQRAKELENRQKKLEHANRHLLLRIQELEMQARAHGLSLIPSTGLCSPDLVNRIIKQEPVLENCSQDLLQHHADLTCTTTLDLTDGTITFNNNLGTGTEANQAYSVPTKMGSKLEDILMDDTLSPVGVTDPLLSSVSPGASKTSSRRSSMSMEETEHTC

[10] = HIV-1 AD8 envelope cell-cell fusion blockers – cherry-pick, dose response (AID 652062); type: functional, cell-based;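 further: luciferase signal from cell-cell fusion driven by HIV-1 clade B AD8 Env; potency is for inhibitors of fusion seen as a drop in luminescence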
[11] = viability loss in CEM21 cells – cell-based, CellTiter-Glo luminescence, cherry-picked, cytotoxicity control for viral fusion inhibitor project, dose response (AID 652042); type: functional;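 further: potency for signal decrease meaning cytotoxicity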
[12] = off-target signal loss in HeLa-CEM21 co-culture – HeLa F-luc CTL cells, cherry-picked, counter-screen for HIV-1 Env fusion inhibitor project, dose response (AID 652040); type: functional, cell-based;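 further: potency for signal decrease marking cytotoxic or nonspecific inhibition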
[13] = blockers of HIV-1 ZM109 envelope-driven cell-cell fusion – HeLa effector, CEM target cells, luciferase, cherry-pick, dose response (AID 652058); type: functional, cell-based;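 further: luciferase signal from HIV-1 Env mediated cell-cell fusion of effector and target cells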
[14] = blockers of HIV-1 envelope-mediated cell-cell fusion – cherry-pick, dose response (AID 652057); type: functional, cell-based
[15] = target: T3, Heat shock factor protein 1 (Mus musculus, UniProt P38532); assay: enhancement of HSF1-driven luciferase signal – cell-based, NIH3T3, luminescence, dose retest, confirmation (AID 435004); type: functional;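 further: stress induced by proteasome inhibitor MG132 added 30 min after compound; luciferase reporter driven by HSF1 response element in NIH3T3 cells; actives raise luminescence as potentiators of the MG132 stress response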
T3 sequence (P38532 whole entry): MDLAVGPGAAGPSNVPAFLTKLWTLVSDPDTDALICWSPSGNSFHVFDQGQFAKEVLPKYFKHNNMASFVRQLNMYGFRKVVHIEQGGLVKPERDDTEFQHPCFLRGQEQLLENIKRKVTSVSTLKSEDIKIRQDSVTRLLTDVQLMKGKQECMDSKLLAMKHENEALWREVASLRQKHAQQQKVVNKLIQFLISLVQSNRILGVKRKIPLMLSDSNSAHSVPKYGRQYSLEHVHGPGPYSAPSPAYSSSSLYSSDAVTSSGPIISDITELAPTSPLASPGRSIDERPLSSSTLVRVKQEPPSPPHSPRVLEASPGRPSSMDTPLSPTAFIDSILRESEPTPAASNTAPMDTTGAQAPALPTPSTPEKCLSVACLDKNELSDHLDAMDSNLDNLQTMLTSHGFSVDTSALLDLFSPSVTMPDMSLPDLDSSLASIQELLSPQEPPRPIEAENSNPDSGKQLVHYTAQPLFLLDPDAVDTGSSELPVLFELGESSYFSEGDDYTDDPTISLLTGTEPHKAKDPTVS

Cytochrome P450 3A4 = Cytochrome P450 3A4 (Homo sapiens, UniProt P08684);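 further: CYP3A4 tested as one member of a cytochrome P450 panel screen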
Sequence of Cytochrome P450 3A4 (P08684 whole entry): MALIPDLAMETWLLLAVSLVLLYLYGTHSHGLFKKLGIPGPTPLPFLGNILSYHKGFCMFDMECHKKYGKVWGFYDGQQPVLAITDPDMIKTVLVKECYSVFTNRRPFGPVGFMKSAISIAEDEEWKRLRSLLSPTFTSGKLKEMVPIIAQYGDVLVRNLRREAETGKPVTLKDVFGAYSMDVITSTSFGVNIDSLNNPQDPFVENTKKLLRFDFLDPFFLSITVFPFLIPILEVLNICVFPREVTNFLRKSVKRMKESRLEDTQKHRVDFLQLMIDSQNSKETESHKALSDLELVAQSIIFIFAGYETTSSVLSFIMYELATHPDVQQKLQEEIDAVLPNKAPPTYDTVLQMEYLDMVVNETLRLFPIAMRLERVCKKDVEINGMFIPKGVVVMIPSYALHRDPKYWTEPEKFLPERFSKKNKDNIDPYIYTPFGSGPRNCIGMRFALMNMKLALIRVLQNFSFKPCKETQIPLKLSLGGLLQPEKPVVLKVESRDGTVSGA

[16] = DRD fibroblast viability loss – cell-based, non-viral oncogenic, luminescence, dose response (AID 1934); type: functional; settings: Homo sapiens
Cytochrome P450 1A2 = target: T4, Cytochrome P450 1A2 (Homo sapiens, UniProt P05177);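 further: PubChem cytochrome P450 panel assay, CYP1A2 panel member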
T4 sequence (P05177 whole entry): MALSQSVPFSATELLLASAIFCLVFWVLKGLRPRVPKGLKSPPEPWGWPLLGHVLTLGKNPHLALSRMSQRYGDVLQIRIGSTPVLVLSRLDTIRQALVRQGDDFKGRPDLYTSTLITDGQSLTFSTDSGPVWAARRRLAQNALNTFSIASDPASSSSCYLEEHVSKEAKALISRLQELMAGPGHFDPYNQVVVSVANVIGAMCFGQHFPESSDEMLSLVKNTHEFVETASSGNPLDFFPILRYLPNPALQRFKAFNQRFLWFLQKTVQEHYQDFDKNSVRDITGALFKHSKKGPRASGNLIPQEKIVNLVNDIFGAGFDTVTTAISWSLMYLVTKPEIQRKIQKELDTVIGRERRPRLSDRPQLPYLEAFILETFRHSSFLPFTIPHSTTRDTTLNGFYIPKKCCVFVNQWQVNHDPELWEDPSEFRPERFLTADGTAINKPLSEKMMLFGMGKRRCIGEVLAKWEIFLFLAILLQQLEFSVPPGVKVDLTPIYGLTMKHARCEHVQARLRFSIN

BJ [17] = assay: cells; type: functional, cell-based; settings: Homo sapiens
BJ [18] = assay: BJ-TERT fibroblast viability loss – cell-based, RAS-independent, luminescence, dose response (AID 1933); type: functional; settings: Homo sapiens
BJ [19] = assay: BJ-TERT-LT-ST fibroblast viability loss – cell-based, RAS-independent, luminescence, dose response (AID 1935); type: functional; settings: Homo sapiens;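 further: BJ fibroblasts immortalized with TERT plus LT and ST oncogenes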
[20] = Luminescence Cell-Based Dose Confirmation HTS to Identify Inhibitors of Platelet Dense Granule Release. [Related pubchem assays: 1663 (Primary HTS), 1678 (Summary of Project)]; type: functional
[21] = target: Luciferin 4-monooxygenase (Photinus pyralis, UniProt P08659); assay: inhibition of purified Photinus pyralis luciferase – biochemical, luminescence, dose response (AID 1891)
Sequence of Luciferin 4-monooxygenase (P08659 whole entry): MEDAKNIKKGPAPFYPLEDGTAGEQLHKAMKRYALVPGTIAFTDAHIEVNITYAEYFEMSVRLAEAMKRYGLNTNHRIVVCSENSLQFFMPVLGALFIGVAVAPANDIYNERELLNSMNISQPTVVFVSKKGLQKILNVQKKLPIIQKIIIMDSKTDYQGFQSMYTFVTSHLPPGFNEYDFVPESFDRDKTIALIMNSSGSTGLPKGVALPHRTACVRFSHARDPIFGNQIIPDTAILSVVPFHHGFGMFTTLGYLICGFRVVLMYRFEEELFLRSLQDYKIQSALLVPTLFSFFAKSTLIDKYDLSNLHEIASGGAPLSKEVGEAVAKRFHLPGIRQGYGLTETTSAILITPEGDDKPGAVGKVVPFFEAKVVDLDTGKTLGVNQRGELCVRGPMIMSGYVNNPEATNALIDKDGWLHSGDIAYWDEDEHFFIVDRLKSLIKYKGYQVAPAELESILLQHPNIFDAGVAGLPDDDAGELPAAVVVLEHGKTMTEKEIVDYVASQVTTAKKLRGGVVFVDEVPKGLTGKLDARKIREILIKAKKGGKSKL

- IC50 [5]: < 0.368 µM (active)
- EC50 [6]: > 53 µM (inactive)
- IC50 [7]: > 20 µM (inactive)
SMILES: COc1cccc2ccc(CC(O)(c3ccccc3)c3ccccc3)nc12

- AC50 (Cytochrome P450 2C19; read-out: AC50): 8.91 µM (inconclusive)
- AC50 (Cytochrome P450 2C9): inconclusive
SMILES: Cc1nc(-c2cccnc2)sc1C(=O)Nc1ccc(F)cc1F

- IC50 [5]: 12 µM (active)
- EC50 [6]: > 53 µM (inactive)
- IC50 [7]: 14.5 µM (active)
SMILES: COc1ccc([N+](=O)[O-])cc1NCc1ccccc1

- AC50 (Cytochrome P450 2D6): 15.8 µM (inconclusive)
- AC50 (Cytochrome P450 2C9): inconclusive
SMILES: C=CCNc1nc(SCC=C)nc2ccsc12

- AC50 (Paired box protein Pax-8): 6.29 µM (active)
- AC50 [9]: 4.3 µM (active)
SMILES: COc1ccccc1NS(=O)(=O)c1cccc(C(=O)N/N=C/c2ccc([N+](=O)[O-])o2)c1

- AC50 (Cytochrome P450 2C9): inconclusive
SMILES: CC1CCN(C(=O)C2CCN(S(=O)(=O)c3cccc4nonc34)CC2)CC1

- AC50 (Cytochrome P450 3A4): 15.8 µM (inconclusive)
- AC50 (Cytochrome P450 2C19): inconclusive
- AC50 (Cytochrome P450 2C9): inconclusive
SMILES: C/C(Cl)=C\Cn1c(N2CCCC2)nc2c1c(=O)[nH]c(=O)n2C

- AC50 (Cytochrome P450 2D6): 31.6 µM (inconclusive)
- AC50 (Cytochrome P450 2C19; read-out: AC50): 7.94 µM (inconclusive)
- AC50 (Cytochrome P450 2C9): inconclusive
SMILES: CCOc1ccc(S(=O)(=O)NCc2ccc(F)cc2)c2cccnc12

- IC50 [5]: 5.83 µM (active)
- EC50 [6]: > 53 µM (inactive)
- IC50 [7]: > 20 µM (inactive)
SMILES: CC(=O)N(C(C)=O)c1cccc(N(Cc2ccccc2)Cc2ccccc2)c1

- IC50 [5]: 3.26 µM (active)
- EC50 [6]: > 53 µM (inactive)
- IC50 [7]: > 20 µM (inactive)
SMILES: CCN(CC)S(=O)(=O)c1ccc(Cl)c(NC(=O)c2cc(Cl)cc(Cl)c2)c1

More lines, now with the values behind:

SMILES: CCc1ccc(-c2cc(C(=O)N3N=C(C(F)F)CC3(O)C(F)F)c3ccccc3n2)cc1 (stereo unspecified)
- EC50 [1]: > 60 µM (not active)
- AC50 [2]: 4.04 µM (active)
- AC50 [3]: 5.74 µM (active)
- EC50 [4]: 2.9 µM (active)

SMILES: COC(=O)C1=C(SC)N(c2ccccc2)C(c2ccccc2)CC1=O (stereo unspecified)
- AC50 (Paired box protein Pax-8): 54.1 µM (active)
- AC50 [8]: 62 µM (active)

SMILES: Cc1ccc2c(C(=O)CCl)c(C)[nH]c2c1
- EC50 [1]: 11.3 µM (active)
- AC50 [9]: 8.17 µM (active)
- EC50 [4]: 3.94 µM (active)

SMILES: Cc1ccc(C(C(=O)NC2CCCCC2)N(C(=O)Cc2c[nH]c3ccccc23)c2ccccc2)o1 (stereo unspecified)
- AC50 [10]: 6.79 µM (active)
- AC50 [11]: 47.4 µM (active)
- EC50 [1]: > 60 µM (not active)
- AC50 [12]: 10.3 µM (active)
- AC50 [13]: 2.63 µM (active)
- AC50 [14]: 4.14 µM (active)
- EC50 [15]: > 260 µM (inactive)
- EC50 [4]: 1.6 µM (active)

SMILES: O=C(CCl)Nc1ccc(Oc2cnc3ccccc3n2)cc1
- EC50 [16]: 16.9 µM (active)
- AC50 (Cytochrome P450 1A2): 8.91 µM (inconclusive)
- EC50 (BJ [17]): > 150 µM (not active)
- EC50 (BJ [18]): 6.36 µM (active)
- EC50 (BJ [19]): > 75 µM (inconclusive)
- AC50 (Cytochrome P450 2C9): inconclusive

SMILES: O=C(Cc1ccccc1)N[C@@H]1C=C[C@H](CC(=O)N2CCCCC2)O[C@@H]1CO
- AC50 [13]: 28.7 µM (active)

SMILES: Cc1nc2ccccc2n1CC(=O)NCc1ccccc1
- AC50 [10]: 16.8 µM (active)
- AC50 [12]: > 70 µM (inactive)

SMILES: C[C@H](CO)N1C[C@H](C)[C@H](CN(C)Cc2ccc(F)cc2)OCc2ccccc2-c2ccccc2C1=O
- AC50 [10]: 3.77 µM (active)
- AC50 [13]: 1.39 µM (active)
- AC50 [14]: 0.557 µM (active)

SMILES: O=C(NC(=O)c1ccccc1)Nc1ccccn1
- AC50 [10]: 6.09 µM (active)
- AC50 [11]: 39.1 µM (active)
- EC50 [20]: 2.1 µM (active)
- EC50 [21]: 4.17 µM (active)
- AC50 [12]: 9.35 µM (active)
- AC50 [13]: 37.7 µM (active)
- AC50 [14]: 2.44 µM (active)
